According to PubChem BioAssay (NCI):
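Protocol summary: plate cells (96-well), add compound at 5 concentrations, incubate 48 h, interpolate endpoints linearly. Here, GI50 denotes the concentration required for 50% inhibition of growth. TGI marks complete inhibition of growth.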

Legend:
Assay in all cases: NCI tumour cell line growth inhibition, 48 h
[1] = tested on: HL-60(TB) leukemia
[2] = tested on: M14 melanoma
[3] = tested on: HT29 colon
[4] = tested on: U251 CNS
[5] = tested on: OVCAR-8 ovarian
[6] = tested on: SF-295 CNS
[7] = tested on: NCI/ADR-RES ovarian
[8] = tested on: NCI-H460 lung
[9] = tested on: SR leukemia

CCN1CCC(O)(c2ccc(Oc3ccc(C)cc3)cc2)C(C(=O)c2ccc(Oc3ccc(C)cc3)cc2)C1 (stereo unspecified)
TGI [1]: 3.7 µM
TGI [2]: 30.6 µM
TGI [3]: 14.2 µM
TGI [4]: 23.7 µM
TGI [5]: 28.2 µM
TGI [6]: 21.4 µM
TGI [7]: 28.2 µM
TGI [8]: 13.8 µM

CSCCC(NC(=O)OCc1ccccc1)NC(=O)OCc1ccccc1
TGI [2]: > 100 µM
TGI [9]: > 100 µM
TGI [3]: > 100 µM
TGI [4]: > 100 µM
TGI [5]: > 100 µM
TGI [6]: > 100 µM
TGI [7]: > 100 µM
TGI [8]: > 100 µM

CC(=O)OCC1=C(C)C[C@H]([C@@H](COC(C)=O)C2CCC3C4C[C@H]5O[C@]56CC=CC(=O)[C@]6(C)C4CC[C@@]32C)OC1=O (stereo partly specified)
TGI [1]: 0.198 µM
TGI [2]: 0.785 µM
TGI [9]: 0.123 µM
TGI [3]: 0.508 µM
TGI [4]: 1.05 µM
TGI [5]: 0.714 µM
TGI [6]: 5.59 µM
TGI [8]: 2.91 µM

Clc1c(C(Cl)(Cl)Cl)nsc1N1CCCCC1
TGI [1]: 48.2 µM
TGI [2]: 56.4 µM
TGI [9]: 36.5 µM
TGI [3]: 38.3 µM
TGI [4]: > 100 µM
TGI [5]: 71 µM
TGI [6]: 66.8 µM
TGI [8]: > 100 µM

Oc1ccc(C#CCOc2ccccc2)cc1CNCCN(Cc1ccccn1)Cc1ccccn1
GI50 [1]: 1.19 µM
TGI [1]: 4.21 µM
GI50 [3]: 2.54 µM
TGI [3]: 12.6 µM
GI50 [4]: 0.668 µM
TGI [4]: 5.16 µM
GI50 [5]: 1 µM
TGI [5]: 6.55 µM
GI50 [6]: 0.552 µM
TGI [6]: 1.89 µM
GI50 [7]: 1.83 µM
TGI [7]: 6.68 µM
GI50 [8]: 0.538 µM
TGI [8]: 2.38 µM

NC1CC(=O)c2sccc21 (stereo unspecified)
TGI [2]: > 100 µM
TGI [9]: > 100 µM
TGI [3]: > 100 µM
TGI [4]: > 100 µM
TGI [5]: > 100 µM
TGI [6]: > 100 µM
TGI [7]: > 100 µM

CC[C@@]12C=CC(=S)N(CCSc3ccccc3)[C@@H]1c1c(n(S(=O)(=O)c3ccc(OC)cc3)c3ccccc13)CC2
TGI [1]: > 100 µM
TGI [2]: > 100 µM
TGI [3]: > 100 µM
TGI [4]: > 100 µM
TGI [5]: > 100 µM
TGI [6]: > 100 µM
TGI [7]: > 100 µM
TGI [8]: > 100 µM

CC(=O)Oc1ccc(/C=C/C(=O)O[C@H]2CCCC[C@@H]2OC(=O)/C=C/c2ccc(OC(C)=O)c(OC(C)=O)c2)cc1OC(C)=O
TGI [2]: 25.6 µM
TGI [9]: > 100 µM
TGI [3]: > 100 µM
TGI [4]: > 100 µM
TGI [5]: 61.7 µM
TGI [6]: 19 µM
TGI [7]: > 100 µM
TGI [8]: > 100 µM

c1ccc(C(CCN2CC3CCC(CC3)C2)c2ccccc2)cc1
TGI [2]: 27.3 µM
TGI [9]: 46.4 µM
TGI [3]: 48.4 µM
TGI [4]: 35.1 µM
TGI [5]: 98.3 µM
TGI [6]: 55 µM
TGI [7]: 58.3 µM
TGI [8]: 28.9 µM

O=C1c2ccccc2-c2nc(/C=C/c3ccccc3)cc3c2c1nc1ccccc13
TGI [2]: > 100 µM
TGI [9]: 50.6 µM
TGI [3]: 92 µM
TGI [4]: 57 µM
TGI [5]: > 100 µM
TGI [6]: > 100 µM
TGI [7]: > 100 µM

O=C1C(NCCN2CCOCC2)=C(Cl)C(=O)c2ncccc21
TGI [1]: 0.168 µM
TGI [2]: 1.73 µM
TGI [9]: 3.3 µM
TGI [3]: 2.95 µM
TGI [4]: 2.23 µM
TGI [5]: 1.9 µM
TGI [6]: 2.77 µM
TGI [8]: 1.71 µM

NS(=O)(=O)c1nnc(NS(=O)(=O)c2ccccc2C(=O)O)s1
TGI [2]: > 100 µM
TGI [9]: > 100 µM
TGI [3]: > 100 µM
TGI [4]: > 100 µM
TGI [5]: > 100 µM
TGI [6]: > 100 µM
TGI [7]: > 100 µM
TGI [8]: > 100 µM

CC(=O)O[C@H]1C[C@H]2C(=S)Nc3ccccc3C(=S)N2C1
TGI [2]: > 100 µM
TGI [9]: > 100 µM
TGI [3]: > 100 µM
TGI [4]: > 100 µM
TGI [5]: > 100 µM
TGI [6]: > 100 µM
TGI [7]: > 100 µM
TGI [8]: > 100 µM

COC(=O)[C@H](Cc1ccccc1)NP(=O)(O)OCC1C=CC(n2cc(C)c(=O)[nH]c2=O)O1 (stereo partly specified)
TGI [1]: > 100 µM
TGI [2]: > 100 µM
TGI [3]: > 100 µM
TGI [4]: > 100 µM
TGI [5]: > 100 µM
TGI [6]: > 100 µM
TGI [7]: > 100 µM
TGI [8]: > 100 µM

CC1CCc2sc3[nH]c(=S)n(-c4ccccc4)c(=O)c3c2C1 (stereo unspecified)
TGI [2]: > 100 µM
TGI [9]: > 100 µM
TGI [3]: > 100 µM
TGI [4]: > 100 µM
TGI [5]: > 100 µM
TGI [6]: > 100 µM
TGI [7]: > 100 µM
TGI [8]: > 100 µM

CC(Cc1ccccc1)NC1=NCCO1 (stereo unspecified)
TGI [9]: 63.5 µM
TGI [3]: 40.3 µM
TGI [4]: 58 µM
TGI [5]: > 100 µM
TGI [6]: > 100 µM
TGI [8]: 36.6 µM

O=C(OCc1ccccc1)N1CCN(C(=O)OCc2ccccc2)CCN(C(=O)OCc2ccccc2)CCN(C(=O)OCc2ccccc2)CCN(C(=O)OCc2ccccc2)CC1
TGI [2]: > 100 µM
TGI [4]: > 100 µM
TGI [5]: > 100 µM
TGI [6]: > 100 µM
TGI [7]: > 100 µM
TGI [8]: > 100 µM

CC(=O)O[C@H]1[C@@H](OC(C)=O)C(C)(C)/C=C/[C@H](C)C(=O)[C@@]2(OC(C)=O)C[C@@](C)(OC(C)=O)[C@H](OC(C)=O)[C@@H]2[C@H]2OC(=O)CC[C@@]2(OC(=O)c2ccccc2)[C@@H]1OCC(C)C
TGI [1]: > 100 µM
TGI [2]: > 100 µM
TGI [3]: > 100 µM
TGI [4]: > 100 µM
TGI [5]: > 100 µM
TGI [6]: > 100 µM
TGI [7]: > 100 µM
TGI [8]: > 100 µM

COc1ccc(/C=N/NC(=O)c2cnc3[nH]c(=O)n(C)c(=O)c3c2)cc1
TGI [2]: > 100 µM
TGI [3]: > 100 µM
TGI [4]: > 100 µM
TGI [5]: > 100 µM
TGI [6]: > 100 µM
TGI [7]: > 100 µM
TGI [8]: > 100 µM
